Measurements as given in publication PMC7469393, “Binding of 2-(Triazolylthio)acetamides to Metallo-β-lactamase CcrA Determined with NMR” (ACS Omega, 2020).

Assays:
CcrA [1] = target: T1, CcrA (Bacteroides fragilis, UniProt P25910); assay: 1H, […] HSQC NMR titration, chemical shift perturbation, fast exchange; assay type: binding
CcrA [2] = target: T1, CcrA; assay: 1H, […] HSQC NMR titration, slow exchange (relative peak intensities); assay type: binding

T1 sequence (P25910 19-249): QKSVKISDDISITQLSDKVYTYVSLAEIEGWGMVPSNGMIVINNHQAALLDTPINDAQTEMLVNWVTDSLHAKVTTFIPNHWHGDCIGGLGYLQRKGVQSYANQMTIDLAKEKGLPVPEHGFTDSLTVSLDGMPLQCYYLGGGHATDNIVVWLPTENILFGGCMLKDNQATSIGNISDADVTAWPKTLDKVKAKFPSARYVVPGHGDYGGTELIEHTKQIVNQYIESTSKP

For `O=C(CSc1nnc(-c2ccccc2C(=O)O)[nH]1)Nc1nc2ccccc2s1` [compound 4, 4], the Kd (CcrA [1]) was 11 ± 11 µM.

With `O=C(CSc1nnc(-c2ccccc2C(=O)O)[nH]1)Nc1ccccc1` [compound 5, 5] the Kd (CcrA [1]) was 34 ± 43 µM.

With `O=C(CSc1nnc(-c2ccccc2C(=O)O)[nH]1)Nc1ccc(Cl)cc1` [compound 6, 6] the Kd (CcrA [2]) was about 2.3 µM.
